Several values for one entry are separate records, joined by “and”; a condition that tells them apart may be missing. Equal entries are not always repeated. Activity calls are given as the source filed them.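 The calls were made as follows: active = compounds giving half or more protection of infected cells from virus-caused growth loss, again on retest; inactive = the rest.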 Where a SMILES comes first, the peptide text is derived from it. [ ]: non-standard residue; d: D form. The star is where a group is joined. mTyr = N[CH](Cc1cccc(O)c1)C(=O)O; Cbz = O=C(OCc1ccccc1)*; OBn = c1ccc(CO*)cc1

Drawing on PubChem BioAssay AID179 (DTP/NCI, 2004), this text covers EC50, IC50 and outcome for 74 compounds.

The subject of this test is CEM cells HIV-1 protection, formazan growth assay. Briefly: NCI AIDS Antiviral Assay. As to conditions: for IC50: measured here: growth of uninfected CEM cells. In outline: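 Protection of CEM cells against HIV-1 was scored from cell growth (soluble formazan) across five concentrations, with parallel uninfected cells. Lack of protection may reflect toxicity.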

For orientation: EC50 means the concentration needed to bring the measured effect to its halfway point. Usually IC50 stands for the concentration needed to halve the response being measured. A lower IC50 goes with inhibition by little substance. Regarding `CS(=O)(=O)c1nc2nc[nH]c2c(=O)[nH]1`, the EC50 is greater than 200 µM and the IC50 was greater than 200 µM.
With `Cc1cn(C2CC(ON3C(=O)c4ccccc4C3=O)C(CO)O2)c(=O)[nH]c1=O` (stereo not given), the concentration giving a half-maximal response (EC50) is 26.9 µM and > 200 µM; the IC50 was greater than 200 µM.
Regarding `O=C1NC(N/N=C\C(O)C(O)C(O)C(O)CO)=N/C1=C\c1ccc(Cl)cc1` (stereo not given), the EC50 is greater than 200 µM and the IC50 was 33.9 µM.
The corresponding values for `COc1ccc(CC2Cc3ccccc3CC(=O)N2)cc1OC` (stereo not given) are greater than 200 µM and 17.8 µM.
With `COC(=O)C1C(OC(=O)c2ccccc2)CC2CCC1N2C(N)=O` (stereo not given), the EC50 was greater than 200 µM and the IC50 is greater than 200 µM.
For `CCC[CH2][Sn]1([CH2]CCC)[O]N=C(c2ccccc2)C(c2ccccc2)[O]1` (stereo not given), the EC50 is greater than 19.5 µM and the 50% inhibitory concentration (IC50) stood at 2.45 µM.
As for `O=c1cc(N2CCCC2)[nH]c(=O)n1Cc1ccccc1`, the outcome was inactive.
For the compound `CCOP(=O)(O)CN1CCNCCN(CP(=O)(O)OCC)CCNCC1`, the EC50 was greater than 100 µM and the half-maximal inhibitory concentration (IC50) was greater than 100 µM.
As to `O[C@H]1c2cccn2-c2ccccc2S[C@H]1c1ccccc1`, the EC50 was greater than 83.2 µM and the IC50 was 43.7 µM.
On to `O=C1c2c(c3c4ccccc4n4c3c3c2c2ccccc2n3C/C=C\C4)C(=O)N1Cc1ccccc1`, for which the result was inactive.
As for `NC(=O)c1nnsc1NC=O`, the EC50 was greater than 200 µM and the IC50 was greater than 200 µM.
As to `CCCCCCCN=C(N)CSSCC(N)=NCCCCCCC`, the EC50 is greater than 331 µM and the 50% inhibitory concentration (IC50) amounted to 10.2 µM.
On to `O=c1cc(N=Nc2ccc(Br)cc2)[nH]c(=S)[nH]1`, for which the EC50 was greater than 200 µM and the IC50 was 1.1 µM.
In the case of `COc1ccc(C([Se]c2ccccc2)C2C(=O)N(O)CC(=O)N2O)cc1` (stereo not given), the outcome was inactive.
For `CC(=O)C(CN1CCCCC1)C(c1ccccc1)c1c(O)c2ccccc2oc1=O` (stereo not given), the EC50 was greater than 120 µM and the 50% inhibitory concentration (IC50) was found to be 117 µM.
In the case of `O=C(NNC(=S)NC1CCCCC1)C12CC3CC(CC(C3)C1)C2`, the EC50 is greater than 200 µM and the half-inhibitory concentration (IC50) was greater than 200 µM.
With `N.N.O=C([O-])P(=O)([O-])[O-].[Na+].[Pt+4]`, the EC50 is greater than 4170 µM and the IC50 was 155 µM.
The corresponding values for `Cc1cc2[nH]c3c(C#N)c(O)c(C)c(=O)n3c2cc1C` are greater than 166 µM and greater than 166 µM.
As for `CC(C)(CN1CCCCC1)C(=O)/C=C/c1ccc(Cl)cc1`, the EC50 was greater than 36.3 µM and the IC50 is 7.94 µM.
On to `Cc1cc(S(=O)(=O)Nc2nc3cscc3c(=O)n2N)c(S)cc1Cl`, for which the concentration for a half-maximal effect (EC50) was 33.9 µM and the concentration for half-maximal inhibition (IC50) was found to be 132 µM.
Consider `CCOC(=O)/C=C1\Nc2ccccc2C(c2ccccc2)=NC1OC(C)=O` (stereo not given), for which the EC50 is greater than 20 µM and the IC50 is greater than 20 µM.
`O=C1CC(CC(O)C2CCCC2O)CC(=O)N1` (stereo not given): the EC50 is greater than 200 µM and the IC50 was greater than 200 µM.
For the compound `S=C1N(c2ccc(Br)cc2)C2=Nc3ccccc3SC(=C2N=Nc2ccc(Br)cc2)N1c1ccc(Cl)cc1`, the EC50 is greater than 32.4 µM and the IC50 was 6.17 µM.
On to `CCCc1cc(=O)oc2c3c(cc(OC(C)CI)c12)O[C@H](C)[C@@H](C)C3=O` (stereo not given in full), for which the EC50 was greater than 87.1 µM and the half-inhibitory concentration (IC50) was found to be 21.4 µM.
As to `CCOC(=O)C(NC(=O)CC)(Nc1ccc(F)c(Cl)c1)C(F)(F)F` (stereo not given), the EC50 was greater than 200 µM and the half-inhibitory concentration (IC50) was greater than 200 µM.
For `OC12c3ccccc3C1CCCCC2N1CCCC1` (stereo not given), the EC50 is greater than 200 µM and the IC50 was greater than 200 µM.
On to `COc1ccc(C2=Nc3cc(C)c(C)cc3NC(c3ccccc3)C2)cc1` (stereo not given), for which the EC50 was greater than 200 µM and the IC50 is 28.8 µM.
On to `CCc1ccc(/C(C#N)=C/c2ccccc2Cl)cc1`, for which the EC50 was greater than 200 µM and the IC50 stood at 27.5 µM.
Take `Cc1ccc(NC(=O)/C(=N\NC(N)=O)c2c(O)c3ccccc3[nH]c2=O)cc1`: the EC50 was greater than 95.5 µM and the concentration for half-maximal inhibition (IC50) was greater than 95.5 µM.
On to `CC(=O)OCC(OC(C)=O)C(OC(C)=O)C(OC(C)=O)C(C=NN(C(C)=O)S(=O)(=O)c1ccc(/C=C2\NC(=O)N(C)C2=O)cc1)OC(C)=O` (stereo not given), for which the EC50 is greater than 200 µM; the half-inhibitory concentration (IC50) is 7.24 µM and 11.2 µM.
Take `O=CC(=O)C(C(=O)O)[N+](=O)[O-]` (stereo not given): the EC50 was greater than 200 µM and the half-inhibitory concentration (IC50) was greater than 200 µM.
For the compound `CCCCCCCCCCCC1=C(O)C(N[C@@H]2CCCCC2N)=CC(=O)C1=O` (stereo not given in full), the EC50 is greater than 3.72 µM and the IC50 is greater than 3.72 µM.
As for `CCOC(=O)C1=C(O)c2c(OC)ccc(OC)c2C(=O)C1=O`, the EC50 was greater than 427 µM and the IC50 was greater than 427 µM.
As for `COc1cc(N=Nc2ccc(S(=O)(=O)O)cc2)c(C)cc1N=Nc1cc(S(=O)(=O)O)c(NC(=O)c2ccc(N)cc2)cc1NC(C)=O`, the EC50 was 13.2 µM and the 50% inhibitory concentration (IC50) is greater than 200 µM.
As for `Cc1ccc(S(=O)(=O)/C(C#N)=C\NC(=S)N=Nc2c(O)[nH]c3ccccc23)cc1`, the EC50 is greater than 200 µM and the IC50 was greater than 200 µM.
As to `CCn1c(=O)c(N=O)c(N)n(CCCOC)c1=O`, the EC50 was greater than 200 µM and the IC50 was greater than 200 µM.
On to `CC1(Cn2ccc(=O)[nH]c2=O)CC(C2(C)OCCO2)C(=O)O1` (stereo not given), for which the EC50 is greater than 813 µM and the IC50 is greater than 813 µM.
Turning to `CC1(C)OC2CC3COC(=O)C3CC2O1` (stereo not given), the EC50 is greater than 1170 µM and the IC50 was greater than 1170 µM.
On to `c1ccc(-c2nc3cc4c(cc3n3cccc23)oc2ccccc24)cc1`, for which the EC50 is greater than 100 µM and the half-maximal inhibitory concentration (IC50) came to 85.1 µM.
Regarding `S=C(S)N1CCNCC1`, the result was inactive.
For `CC(=O)Nc1ccc(C(=O)CCC(NC(C)=O)C(=O)O)cc1` (stereo not given), the EC50 is greater than 200 µM and the IC50 was greater than 200 µM.
In the case of `CCCCN(CCCC)C(=Nc1ccccc1)N(CCCC)CCCC`, the EC50 was greater than 138 µM and the IC50 was 24 µM.
Turning to `O=C(O)/C=C/C(=O)NNC(=O)/C=C/C(=O)O`, the EC50 was greater than 1100 µM and the 50% inhibitory concentration (IC50) worked out at 692 µM.
The corresponding values for `O=C(/C=C/c1ccccc1)c1ccc(Oc2ccccc2)cc1` are greater than 200 µM and 23.4 µM.
`CC1CN(c2ccc(Cl)cc2)CC(C)OC(=O)O1` (stereo not given): the outcome was inactive.
As for `O=C(O)Cn1c(=O)[nH]c(=O)c2c1ncn2Cc1ccccc1`, the EC50 is greater than 832 µM and the IC50 is greater than 832 µM.
With `O=C1C=C(O)c2ccccc2C1=O`, the EC50 is greater than 200 µM and the half-maximal inhibitory concentration (IC50) was found to be 120 µM.
On to `CCOC(=O)C[C@@H](C)[C@]1(C(=O)OC)CCCC1=O`, for which the EC50 was greater than 708 µM and the IC50 was greater than 708 µM.
Turning to `CC(C)C(OC(=O)c1cc(NC(=S)c2ccccc2)ccc1Cl)C(C)C`, the 50% effective concentration (EC50) is 0.437 µM and the half-maximal inhibitory concentration (IC50) came to 11.7 µM.
With `Clc1ccccc1C1SCc2nc3ccccc3n21` (stereo not given), the outcome was inactive.
With `CN1CCOC1c1ccccc1O` (stereo not given), the EC50 is greater than 200 µM and the half-inhibitory concentration (IC50) was greater than 200 µM.
On to `O=C1C=C(C2=C(C3=CC(=O)c4ccccc4C3=O)C(=O)c3ccccc3C2=O)C(=O)c2ccccc21`, for which the EC50 was greater than 100 µM and the IC50 is 1.38 µM.
Turning to `O=c1oc2ccccc2n1P(=O)(N1CCOCC1)N1CCOCC1`, the EC50 was greater than 251 µM and the half-maximal inhibitory concentration (IC50) was greater than 251 µM.
`CCn1c(O)c(C=Nc2ccccc2)s/c1=N/Nc1nc(-c2ccc([N+](=O)[O-])cc2)cs1`: the EC50 is greater than 200 µM and the IC50 was determined as 14.5 µM.
Consider `Cc1ccc(NC(=O)CC(=O)N2N=C(N3CCCCC3)CC2c2ccccc2)cc1` (stereo not given), for which the EC50 was greater than 200 µM and the IC50 was greater than 200 µM.
Regarding `CC(C)(C)/[N+]([O-])=[N+](\[O-])C(C)(C)C`, the EC50 is greater than 200 µM and the half-inhibitory concentration (IC50) was 33.9 µM.
With `C=C1CC2C[C@H](OS(=O)(=O)c3ccc(C)cc3)C(C1)N2C` (stereo not given in full), the EC50 is greater than 200 µM and the half-inhibitory concentration (IC50) was greater than 200 µM.
For `CC1(C)C=[N+]([O-])C(C)(C)N1`, the EC50 is greater than 200 µM and the half-inhibitory concentration (IC50) is greater than 200 µM.
As to `COC(=O)C(Cc1cccc(O)c1)NC(=O)C(CC(=O)OCc1ccccc1)NC(=O)OCc1ccccc1` (stereo not given) (Cbz-Asp(OBn)-[mTyr]-OMe; configuration not given here), the EC50 is greater than 200 µM and the IC50 turned out to be 91.2 µM.
The corresponding values for `O=C1C=CC2O[C@H](c3ccccc3)[C@H](O)C2O1` (stereo not given in full) are greater than 1070 µM and 5.37 µM.
For the compound `NC1=NN(c2ccccc2)C(=O)C1C(=O)C(=O)Nc1ccccc1` (stereo not given), the result was inactive.
On to `O=C(CC(=O)c1ccc([N+](=O)[O-])cc1)C(=O)Nc1nccs1`, for which the EC50 is greater than 186 µM and the half-inhibitory concentration (IC50) is 155 µM.
In the case of `Nc1ccc(C(=O)Nc2ccccc2N)cc1`, the EC50 is greater than 1100 µM and the IC50 was determined as 3.8 µM.
`O=C(O)/C(Cl)=C(\Cl)C(=O)Nc1ccccc1`: the outcome was inactive.
Consider `CCCN(CCC)C(=O)Cc1c2n(c3ccccc13)Cc1ccccc1-2`, for which the EC50 is greater than 15.1 µM and the half-inhibitory concentration (IC50) is 5.89 µM.
The corresponding values for `O=S(=O)(O)c1cccc(N=Nc2cc(S(=O)(=O)O)c3cccnc3c2O)c1` are greater than 550 µM and greater than 550 µM.
In the case of `CC12CO[C@@](C)(CC(S(=O)(=O)c3ccccc3)C1)O2` (stereo not given in full), the EC50 was greater than 178 µM and the half-inhibitory concentration (IC50) is greater than 178 µM.
Turning to `CCCCNC(=S)Nc1nc(C(=O)NNC(=S)Nc2ccccc2)cs1`, the concentration for a half-maximal effect (EC50) was 58.9 µM and the concentration for half-maximal inhibition (IC50) was greater than 200 µM.
On to `CCCCCCCCCCCCCCCCCCSCC(COP(=O)(O)OP(=O)(O)OCC1OC(n2ccc(=O)[nH]c2=O)CC1N=[N+]=[N-])OC(=O)CCCCCCCCCCCCCCC` (stereo not given), for which the concentration giving a half-maximal response (EC50) is greater than 209 µM and the IC50 was 186 µM.
The corresponding values for `Cn1cnc([N+](=O)[O-])c1Sc1nc2ncccc2[nH]1` are greater than 912 µM and 21.9 µM.
For the compound `C=C(c1ccccc1)N1N=NC2CCOC21` (stereo not given), the EC50 was greater than 200 µM and the concentration for half-maximal inhibition (IC50) was greater than 200 µM.
Regarding `N#Cc1nc(CCC(c2nc(C#N)c(N)o2)N2C(=O)c3ccccc3C2=O)oc1N` (stereo not given), the EC50 was greater than 200 µM and the IC50 is greater than 200 µM.
`N#Cc1c(-c2ccccc2)cn(C(=O)c2ccccc2)c1N`: the EC50 was greater than 200 µM and the concentration for half-maximal inhibition (IC50) turned out to be 191 µM.
The corresponding values for `O=C(Nc1cccc(C(F)(F)F)c1)O/N=C(/Cl)CCl` are greater than 200 µM and 33.9 µM.
